US20070032522A1, “Antiviral agents” (priority 2005, published 2007)

System: HCV replicon-containing cells (Huh7/Clone A)
Test: HCV Replicon Assay
Type: cell-based
Settings: Hepatitis C virus, Huh-7, 48 hours incubation, HCV replicon RNA by RT-qPCR normalized to total RNA, read-out: IC50 of inhibition of HCV replication
From the text: The HCV replicon assay is a cell-culture system that mimics in vivo HCV replication and provides a system to study HCV replication in vitro. It was created by transfecting cloned viral RNA derived from a consensus HCV genomic sequence into human Huh7 hepatoma cells that are semi-permissive for viral RNA production (Lohmann V., Korner F., Koch J.-O., Herian U., Theilmann L. and Bartenschlager R. (1999). Replication of subgenomic Hepatitis C virus RNAs in a hepatoma cell line. Science 285, 110-113 and Blight K. J., Kolykhalov A. A. and Rice C. M. (2000). Efficient initiation of HCV RNA Replication in cell culture. Science 290, 972-1974). […] Replicon-containing cells autonomously and persistently replicate HCV RNA that can be measured quantitatively by real-time qPCR. Therefore, the replicon system facilitates quantitative assessment of anti-viral activity by monitoring changes in HCV RNA replication in a cell-based assay. […]
Total RNA eluted in 130 μl of RNase-freed H2O was quantitated by the RiboGreen Assay according to the supplier's protocol (Molecular Probe). […] RNA samples in the black microplate were mixed with 95 μl of diluted RiboGreen reagent (1:250 dilution in TE buffer) and sample fluorescence was measured using a fluorescence microplate reader at standard fluorescein wavelengths (excitation ˜480 nm, emission ˜520 nm). […]

## O=C(OCc1ccc(Cl)cc1)c1cn(Cc2ccc(Cl)cc2)c2cc(N3CCNCC3)c(F)cc2c1=O [Compound 1, 1-(4-chlorobenzyl)-6-fluoro-4-oxo-7-piperazin-1-yl-1,4-dihydro-quinoline-3-carboxylic acid 4-chlorobenzyl ester]
  IC50: < 5 µM
